Results published in patent US6472348B1, “Pyridone derivatives and herbicides” (Kumiai Chemical Industry Co., Ltd., priority 1996, dated 2002).

What was measured:
barnyardgrass (Ec) = assay: Test Example 1: herbicidal effects by paddy field soil treatment; format: in vivo; details: 100 g of the active ingredient per 10 ares, 21st day after the application, index 0-5 of Table 47;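 note: grade of growth control; 5 = at least 90%; 4 = 70 to 90%; 3 = 50 to 70%; 2 = 30 to 50%; 1 = 10 to 30%; 0 = under 10%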
Summary of the method: (§1)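 Greenhouse pot test in flooded paddy soil, dosed at 100 g a.i. per 10 ares; effect scored on day 21.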

bulrush (Sc) = assay: as above; format: in vivo; details: 100 g of the active ingredient per 10 ares, 21st day after the application, index 0-5 of Table 47;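 note: grade of growth control; 5 = at least 90%; 4 = 70 to 90%; 3 = 50 to 70%; 2 = 30 to 50%; 1 = 10 to 30%; 0 = under 10%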
Summary of the method: as §1

monochoria (Mo) = assay: as above; format: in vivo; details: 100 g of the active ingredient per 10 ares, 21st day after the application, index 0-5 of Table 47;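 note: grade of growth control; 5 = at least 90%; 4 = 70 to 90%; 3 = 50 to 70%; 2 = 30 to 50%; 1 = 10 to 30%; 0 = under 10%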
Summary of the method: as §1

[1] = tested on: common lambsquarters (Ch); assay: Test Example 2: herbicidal effects by upland field soil treatment; format: in vivo; details: 100 g of the active ingredient per 10 ares;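 note: grade of growth control; 5 = at least 90%; 4 = 70 to 90%; 3 = 50 to 70%; 2 = 30 to 50%; 1 = 10 to 30%; 0 = under 10%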
Source text: (§2) (Test on Herbicidal Effects by Upland Field Soil Treatment)

pale smartweed (Po) [2] = assay: as above; format: in vivo; details: 100 g of the active ingredient per 10 ares
Source text: as §2

rice flatsedge (Ci) = assay: as above; format: in vivo; details: 100 g of the active ingredient per 10 ares
Source text: as §2

slender amaranth (Am) [3] = assay: as above; format: in vivo; details: 100 g of the active ingredient per 10 ares
Source text: as §2

[4] = tested on: common lambsquarters (Ch); assay: Test Example 4: crop plant selectivity by upland field soil treatment (cotton), herbicidal effects; format: in vivo; design: scale not given here; details: evaluated 21st day after application
Summary of the method: (§3)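 Upland soil-treatment selectivity test: scoring on day 21 post-application in a greenhouse, rating crop phytotoxicity on cotton and herbicidal effect on co-sown weeds. Seeds were sown in sand-filled pots and covered with soil before treatment.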

green foxtail (Se) = assay: as above; format: in vivo; design: scale not given here; details: evaluated 21st day after application
Summary of the method: as §3

pale smartweed (Po) [5] = assay: as above; format: in vivo; design: scale not given here; details: evaluated 21st day after application
Summary of the method: as §3

slender amaranth (Am) [6] = assay: as above; format: in vivo; design: scale not given here; details: evaluated 21st day after application
Summary of the method: as §3

wheat (Tr) = assay: Test Example 9: crop plant selectivity by upland field foliage treatment (wheat), phytotoxicity; details: dose 1.6 g ai/10a, 14th day after treatment
Summary of the method: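 Sand-filled pot, wheat + weeds co-sown; greenhouse 2 wk, then foliage treatment; greenhouse culture continued; visual scoring of weed control and crop injury at 14 d post-treatment per grading scale.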

[7] = evaluated on the 21st day after application
[8] = 21st day after the application, index 0-5 of Table 47

SMILES	Herbicidal effects Ec (barnyardgrass (Ec))	Herbicidal effects Sc (bulrush (Sc))	Herbicidal effects Mo (monochoria (Mo))	Herbicidal effects Ch [1, 7]	Herbicidal effects Po (pale smartweed (Po) [2]; [7])	Herbicidal effects Ci (rice flatsedge (Ci); [7])	Herbicidal effects Am (slender amaranth (Am) [3]; [7])	Herbicidal effects Ch ([4]; dose 1.6 g ai/10 a)	Herbicidal effects Ch ([4]; dose 6.3 g ai/10 a)	Herbicidal effects Se (green foxtail (Se); dose 1.6 g ai/10 a)	Herbicidal effects Se (green foxtail (Se); dose 6.3 g ai/10 a)	Herbicidal effects Po (pale smartweed (Po) [5]; dose 1.6 g ai/10 a)	Herbicidal effects Po (pale smartweed (Po) [5]; dose 6.3 g ai/10 a)	Herbicidal effects Am (slender amaranth (Am) [6]; dose 1.6 g ai/10 a)	Herbicidal effects Am (slender amaranth (Am) [6]; dose 6.3 g ai/10 a)	Herbicidal effects Ch [1, 8]	Herbicidal effects Po (pale smartweed (Po) [2]; [8])	Herbicidal effects Ci (rice flatsedge (Ci); [8])	Herbicidal effects Am (slender amaranth (Am) [3]; [8])	Phytotoxicity Tr (wheat (Tr))
C#CC(C)Oc1cc(-c2cn(C)c(C(F)(F)F)cc2=O)c(F)cc1Cl (racemic) [Compound 6-10]	5	5	5	5	5	5	5	5	5	4	5	5	5	5	5	–	–	–	–	–
COc1cc(-c2ccc(C(F)(F)F)n(C)c2=O)c(F)cc1Cl [1-15]	5	5	5	–	–	–	–	5	5	5	5	5	5	5	5	5	5	5	5	–
C=CCOc1cc(-c2ccc(C(F)(F)F)n(C)c2=O)c(F)cc1Cl [1-16]	5	5	5	–	–	–	–	5	5	5	5	5	5	5	5	5	5	5	5	2
C#CC(C)Oc1cc(-c2ccc(C(F)(F)F)n(C)c2=O)c(F)cc1Cl (stereo not shown) [1-17]	5	5	5	–	–	–	–	5	5	5	5	5	5	5	5	5	5	5	5	–
C#CCOc1cc(-c2ccc(C(F)(F)F)n(C)c2=O)c(F)cc1Cl [1-18]	5	5	5	–	–	–	–	5	5	5	5	5	5	5	5	5	5	5	5	–
Cn1c(C(F)(F)F)ccc(-c2cc(OCC#N)c(Cl)cc2F)c1=O [1-25]	5	5	5	–	–	–	–	–	5	–	5	–	5	–	5	5	5	5	5	2
C#CCOc1cc(-c2ccc(C(F)(F)F)n(C)c2=O)c(Cl)cc1Cl [1-30]	5	5	5	–	–	–	–	5	5	5	5	5	5	5	5	5	5	5	5	2
Cc1cc(-c2ccc(C(F)(F)F)n(C)c2=O)c(F)cc1Cl [1-90]	5	5	5	–	–	–	–	–	5	–	5	–	5	–	5	5	5	5	5	–
Cn1c(C(F)(F)F)ccc(-c2cc(Cl)c(Cl)cc2F)c1=O [1-136]	5	5	5	–	–	–	–	–	5	–	5	–	5	–	5	5	5	5	5	–
Cn1c(C(F)(F)F)ccc(-c2cc(OCC(F)(F)F)c(Cl)cc2F)c1=O [1-155]	5	5	5	–	–	–	–	5	5	5	5	5	5	5	5	5	5	5	5	–
C=CCN1C(=O)COc2cc(F)c(-c3ccc(C(F)(F)F)n(C)c3=O)cc21 [Compound 2-7]	5	5	5	5	5	5	5	4	5	4	5	5	5	5	5	–	–	–	–	–
C#CCN1C(=O)COc2cc(F)c(-c3cn(C)c(C(F)(F)F)cc3=O)cc21 [Compound 7-1]	5	5	5	5	5	5	5	–	–	–	5	–	5	–	5	–	–	–	–	2
CON=Cc1cc(-c2ccc(C(F)(F)F)n(C)c2=O)c(F)cc1Cl [Compound No. 1-72, 5-(1-methyl-6-trifluoromethyl-2(1H)-pyridon-3-yl)-2-chloro-4-fluorobenzaldehydeoxime-O-methyl ether]	5	5	5	–	–	–	–	5	5	5	5	5	5	5	5	5	5	5	5	–
C#CCN1C(=O)COc2cc(F)c(-c3ccc(C(F)(F)F)n(C)c3=O)cc21 [Compound No. 2-1, 3-[7-fluoro-2,3-dihydro-4-(2-propynyl)-1,4-benzoxazin-3-on-6-yl]-1-methyl-6-trifluoromethyl-2(1H)-pyridone]	5	5	5	5	5	5	5	5	–	5	–	5	–	5	–	–	–	–	–	–
C#CCn1c(=O)sc2cc(F)c(-c3ccc(C(F)(F)F)n(C)c3=O)cc21 [Compound No. 3-1, 3-[6-fluoro-3-(2-propynyl)-benzothiazolin-2-on-5-yl]-1-methyl-6-trifluoromethyl-2(1H)-pyridone]	5	5	5	5	5	5	5	5	5	5	5	5	5	5	5	–	–	–	–	–
COCc1cc2c(-c3ccc(C(F)(F)F)n(C)c3=O)c(F)cc(Cl)c2o1 [Compound No. 4-4, 3-(7-chloro-5-fluoro-2-methoxymethylbenzofuran-4-yl)-1-methyl-6-trifluoromethyl-2-(1H)-pyridone]	5	5	5	5	5	5	5	5	5	5	5	5	5	5	5	–	–	–	–	–
Cn1cc(-c2cc(Oc3ccccc3)c(Cl)cc2F)c(=O)cc1C(F)(F)F [Compound No. 6-19, 5-(4-chloro-2-fluoro-5-phenoxyphenyl)-1-methyl-2-trifluoromethyl-4(1H)-pyridone]	5	5	5	5	5	5	5	5	5	5	5	5	5	5	5	–	–	–	–	–
Cc1cc2c(-c3cn(C)c(C(F)(F)F)cc3=O)c(F)cc(Cl)c2o1 [Compound No. 9-1, 5-(7-chloro-5-fluoro-2-methylbenzofuran-4-yl)-1-methyl-2-trifluoromethyl-4(1H)-pyridone]	5	5	5	5	5	5	5	5	5	5	5	4	5	5	5	–	–	–	–	–
